Assay [1] deals with human melanoma cells (MeWo, MeWo-LM2, HT-144, SK-Mel-2, SK-Mel-334.2). Kind of assay: Trans-well matrigel cell invasion assay, melanoma cells. The class given is cell-based. Here is the method:
Cancer cells were serum-starved in 0.2% FBS DMEM-based media for 12 hours. Trans-well invasion chambers (354480, BD Biosciences, Bedford, Mass.) were pre-equilibrated prior to beginning the assay by adding 0.5 mL of starvation media to the top and bottom chambers. After 30 minutes, the media in the top chamber was removed, and 0.5 mL of media containing 1×10^5 cancer cells was added into each matrigel-coated trans-well insert and incubated at 37° C. for 24 hours. For neutralization antibody and/or recombinant protein experiments, antibody/recombinant protein was added to each well at the start of the assay at the following concentrations as indicated in the figures: 5-40 μg/mL anti-ApoE 1D7 (Heart Institute, University of Ottawa), 5-40 μg/mL anti-IgG (AB-108-C, R&D Systems, Minneapolis, Minn.), 100 μM recombinant human ApoE3 (4696, BioVision, Mountain View, Calif.), and 100 μM BSA (A2153, Sigma-Aldrich). Upon completion of the assay, matrigel-coated inserts were washed with PBS, the cells at the top side of each insert were scraped off, and the inserts were fixed in 4% paraformaldehyde for 15 minutes. The inserts were then cut out and mounted onto slides using VectaShield mounting medium containing DAPI (H-1000, Vector Laboratories, Burlingame, Calif.). The basal side of each insert was imaged using an inverted fluorescence microscope (Zeiss Axiovert 40 CFL) at 5× magnification, taking three representative images for each insert. The number of invaded cells was quantified using ImageJ (NIH).
The cell invasion assay was performed as previously described in detail (Pencheva et al., 2012) using a trans-well matrigel invasion chamber system (354480, BD Biosciences). In brief, various melanoma cells were cultured in the presence of DMSO, GW3965, T0901317, or Bexarotene at 1 μM for 56 hours, after which melanoma cells were switched to starvation media (0.2% FBS) for 16 hours in the presence of each drug. Following starvation, cells were seeded into matrigel-coated trans-well inserts, and the invasion assay was allowed to proceed for 24 hours at 37° C. For ApoE antibody neutralization experiments, 40 μg/mL 1D7 anti-ApoE blocking antibody (Heart Institute, University of Ottawa, Ottawa, Canada) or 40p, g/mL anti-IgG control antibody (AB-108-C, R&D Systems, Minneapolis, Minn.) was added to each trans-well insert at the start of the assay.
The cells were then serum starved for 16 hours in 0.2% FBS media in the presence of each corresponding drug or DMSO. […] Meanwhile, cancer cells were trypsinized and viable cells were counted using trypan blue. […] The basal side of each insert was imaged using an inverted fluorescence microscope (Zeiss Axiovert 40 CFL) at 5× magnification, and the number of DAPI-positive cells was quantified using ImageJ.

The subject of assay [2] is HUVEC recruited by human melanoma cells. Kind of assay: Trans-well endothelial recruitment assay. Type of assay: cell-based. The following applies: for ability of melanoma cells to recruit endothelial cells: MeWo, HT-144, SK-Mel-2, SK-Mel-334.2, 1 μM for 72 hours. The procedure: 5×10^4 cancer cells were seeded into 24-well plates approximately 24 hours prior to the start of the assay. HUVEC's were grown to 80% confluency and serum starved in EGM-2 media supplemented with 0.2% FBS for 16 hours. HUVEC's were then pulsed with Cell Tracker Red CMTPX dye (C34552, Invitrogen) for 45 minutes. Meanwhile, cancer cells were washed with PBS, 0.5 mL of 0.2% FBS EGM-2 media was added to each well, and a 3.0 μm HTS Fluoroblock insert (351151, BD Falcon, San Jose, Calif.) was placed into each well. 1×10^5 HUVEC's, resuspended in 0.5 mL of starvation media, were seeded into each trans-well insert, and the recruitment assay was allowed to proceed for 16-18 hours at 37° C. For neutralization antibody and/or recombinant protein experiments, antibody/protein was then added to each well at the appropriate concentration as indicated in the figures: 40 μg/mL anti-ApoE 1D7, 40 μg/mL anti-IgG, 100 μM rhApoE3, and 100 μM BSA. Upon completion of the assay, the inserts were processed and analyzed as described for the matrigel invasion assay above (See Matrigel Invasion Assay).
The endothelial recruitment assay was carried out as previously described (Pencheva et al., 2012; Png et al., 2012). Melanoma cells were treated with DMSO, GW3965, T0901317, or Bexarotene at 1 μM for 56 hours, after which 5×10^4 cells were seeded in a 24-well plate in the presence of each drug and allowed to attach for 16 hours prior to starting the assay. HUVEC cells were serum-starved overnight in EGM-2 media containing 0.2% FBS. The following day, 1×10^5 HUVEC cells were seeded into a 3.0 μm HTS Fluoroblock trans-well migration insert (351151, BD Falcon, San Jose, Calif.) fitted into each well containing cancer cells at the bottom. The HUVEC cells were allowed to migrate towards the cancer cells for 20 hours at 37° C., after which the inserts were processed as previously described (Pencheva et al., 2012). For ApoE antibody neutralization experiments, 40 μg/mL 1D7 anti-ApoE blocking antibody (Heart Institute, University of Ottawa, Ottawa, Canada) or 40 μg/mL anti-IgG control antibody (AB-108-C, R&D Systems, Minneapolis, Minn.) was added to each trans-well insert at the start of the assay.
Subsequently, 5×10^4 cancer cells were seeded into 24-well plates in the presence of each drug or DMSO and allowed to attach for 16 hours prior to starting the assay. Human umbilical vein endothelial cells (HUVEC cells) were serum-starved in 0.2% FBS-containing media overnight. The following day, 1×10^5 HUVEC cells were seeded into a 3.0 μm HTS Fluoroblock insert (351151, BD Falcon) fitted into each well containing the cancer cells at the bottom. The HUVEC cells were allowed to migrate towards the cancer cells for 20 hours, after which the inserts were washed in PBS, fixed in 4% PFA, labeled with DAPI, and mounted on slides. The basal side of each insert was imaged using an inverted fluorescence microscope (Zeiss Axiovert 40 CFL) at 5× magnification, and the number of DAPI-positive cells was quantified using ImageJ.

Setting [3] is: parental MeWo cells pre-treated 48 hours.
Where [4] appears, read: recombinant ApoE3 100 μM in cell media.

Counter-ions that a name gives are not always drawn.

For the compound `O=C(O)Cc1cccc(OCCCN(Cc2cccc(C(F)(F)F)c2Cl)CC(c2ccccc2)c2ccccc2)c1` [GW3965 2, 3-[3-[N-(2-Chloro-3-trifluoromethylbenzyl)-(2,2-diphenylethyl)amino]propyloxy]phenylacetic acid hydrochloride], the tumor cell invasion entry in assay [1] (setting [3]) was “decreased”. In addition, the “ability of melanoma cells to recruit endothelial cells” value in assay [2] is “consistently suppressed”. The endothelial recruitment result in assay [2] (setting [3]) is listed as “decreased”.
For `CC(CCOc1cccc(CC(=O)O)c1)N(Cc1cccc(C(F)(F)F)c1Cl)CC(c1ccccc1)c1ccccc1` (centres unmarked) [SB742881 25], the “inhibition of cancer progression phenotypes (cell invasion, endothelial recruitment)” value in assay [1] (MeWo cells, 1 μM for 72 hours, compared with lower potency LXR agonists) is “more effective”.
`O=S(=O)(c1ccccc1)N(CC(F)(F)F)c1ccc(C(O)(C(F)(F)F)C(F)(F)F)cc1` [T0901317 1]: the “ability of melanoma cells to recruit endothelial cells” value in assay [2] is given as “consistently suppressed”.
Turning to “recombinant human ApoE3: recombinant human ApoE3 (4696, BioVision)”, in assay [1] (setting [4]), the “invasion by metastatic LM2 cells” value was “significantly suppressed”. For the same compound, in assay [2] (endothelial cells pre-treated 24 hours, 100 μM), the “ability of endothelial cells to migrate towards highly metastatic cancer cells” value is “significantly reduced”. The “endothelial recruitment by metastatic LM2 cells” value in assay [2] (setting [4]) was “significantly suppressed”.

(Values after US9399028B2, “Treatment of drug resistant cancer” (ROCKEFELLER UNIVERSITY (THE), priority 2012, dated 2016).)
